In PMC9551276, “Design, synthesis and biological evaluation of novel orthosteric-allosteric ligands of the cannabinoid receptor type 2 (CB2R)” (Frontiers in Chemistry, 2022):
Several values for one entry are separate records, joined by “and”; a condition that tells them apart may be missing. Identical values can stand only once.

Tests used:
[1] = tested on: human microglial cells (HMC3); assay: IL-6 and IL-10 release (ELISA) in LPS/TNFα-stimulated HMC3 cells; assay type: cell-based
Experimental: The concentrations of pro-inflammatory (IL-6) and anti-inflammatory (IL-10) interleukins were determined by performing specific ELISA assays (MyBioSource, San Diego, CA, United States ) on collected culture media. Human microglial cells (HMC3) were exposed to pretreatment with test compounds for 1 h followed by stimulation with LPS (10 μg/ml)/TNFα (50 ng/ml) for 24 h. In competition experiments, the CB2R antagonist (SR144528, 1 μM) or the CB2R positive allosteric modulator (EC21a 1 or 10 μM) were administered 15 min before agonist administration.

[2] = biological target: T1, hCB2R (Homo sapiens, UniProt P34972); assay: DiscoveRx PathHunter βarrestin2 recruitment; assay type: cell-based
Experimental: βarrestin2 recruitment was quantified using the DiscoveRx PathHunter® assay. […] Detection solution was added to cells (DiscoveRx), and cells were incubated for 60 min at room temperature. Chemiluminescence was measured on a Cytation5 plate reader (top read, gain 200, integration time 10,000 ms).

[3] = biological target: T1, hCB2R; assay: [3H]CP55,940 radioligand displacement, CHO-K1 hCB2R membranes; assay type: binding; conditions: for hCB2R E min (% CP55,940) ± S.E.M: % [3H]CP55,940 bound, 1 nM radioligand, 2 h; for Effect on [3H]CP55,940 bound to hCB2R: [3H]CP55,940 displacement
Experimental: CHO-K1 cells were thawed, diluted in Tris buffer (50 mM Tris [pH 7.4]) and homogenized in a 1 ml hand-held homogenizer. hCB1R and hCB2R CHO-K1 cell membranes were collected by cavitation in a pressure cell, and sedimented by ultracentrifugation. Pellets were resuspended in TME buffer (50 mM Tris, 5 mM MgCl2, 1 mM EDTA [pH 7.4]), and protein concentration was measured via the Bradford method according to the manufacturer’s directions (Bio-Rad Laboratories, Mississauga, ON). […] Radioligand binding began with the addition of CHO-K1 cell membranes (25 µg protein per sample). […] Brandel GF/B filter paper was soaked with wash buffer at 4 °C for at least 24 h. Each filter paper was washed 6 times with a 1.2 ml aliquot of Tris-binding buffer (pH 7.4), then air-dried and submerged in 5 ml of scintillation fluid (Ultima Gold XR, PerkinElmer). Liquid scintillation spectrometry was used to quantify radioactivity.

[4] = biological target: T2, hCB1R (Homo sapiens, UniProt P21554); assay: [3H]CP55,940 radioligand displacement, CHO-K1 hCB1R membranes; assay type: binding; conditions: % [3H]CP55,940 bound, 1 nM radioligand, 2 h
T2 construct: expressed in transfected cells; host or cells: CHO-K1 (ATCC CCL-61) stably expressing hCB1R; membranes
Experimental: CHO-K1 cells were thawed, diluted in Tris buffer (50 mM Tris [pH 7.4]) and homogenized in a 1 ml hand-held homogenizer. hCB1R and hCB2R CHO-K1 cell membranes were collected by cavitation in a pressure cell, and sedimented by ultracentrifugation. Pellets were resuspended in TME buffer (50 mM Tris, 5 mM MgCl2, 1 mM EDTA [pH 7.4]), and protein concentration was measured via the Bradford method according to the manufacturer’s directions (Bio-Rad Laboratories, Mississauga, ON). […] Radioligand binding began with the addition of CHO-K1 cell membranes (25 µg protein per sample). Assays were performed for 120 min at 37°C and stopped by the addition of ice-cold Tris binding buffer (pH 7.4), followed by vacuum filtration using a 24-well sampling manifold (Brandel Cell Harvester; Brandel Inc., Gaithersburg, MD, United States ). Brandel GF/B filter paper was soaked with wash buffer at 4 °C for at least 24 h. Each filter paper was washed 6 times with a 1.2 ml aliquot of Tris-binding buffer (pH 7.4), then air-dried and submerged in 5 ml of scintillation fluid (Ultima Gold XR, PerkinElmer). Liquid scintillation spectrometry was used to quantify radioactivity.

[5] = biological target: T1, hCB2R; assay: DiscoveRx HitHunter inhibition of FSK-stimulated cAMP accumulation; assay type: cell-based
Experimental: Inhibition of FSK-stimulated cAMP accumulation was measured using the DiscoveRx HitHunter assay.

[6] = CHO-K1 hCB2R, 10 µM FSK, 90 min
[7] = CHO-K1 hCB2R, 90 min, read-out: βarrestin2 recruitment EC50 (95% C.I.)
[8] = CHO-K1 hCB2R, 10 µM FSK, 90 min, read-out: Inhibition of cAMP EC50 (95% C.I.)

T2 sequence (P21554 whole entry): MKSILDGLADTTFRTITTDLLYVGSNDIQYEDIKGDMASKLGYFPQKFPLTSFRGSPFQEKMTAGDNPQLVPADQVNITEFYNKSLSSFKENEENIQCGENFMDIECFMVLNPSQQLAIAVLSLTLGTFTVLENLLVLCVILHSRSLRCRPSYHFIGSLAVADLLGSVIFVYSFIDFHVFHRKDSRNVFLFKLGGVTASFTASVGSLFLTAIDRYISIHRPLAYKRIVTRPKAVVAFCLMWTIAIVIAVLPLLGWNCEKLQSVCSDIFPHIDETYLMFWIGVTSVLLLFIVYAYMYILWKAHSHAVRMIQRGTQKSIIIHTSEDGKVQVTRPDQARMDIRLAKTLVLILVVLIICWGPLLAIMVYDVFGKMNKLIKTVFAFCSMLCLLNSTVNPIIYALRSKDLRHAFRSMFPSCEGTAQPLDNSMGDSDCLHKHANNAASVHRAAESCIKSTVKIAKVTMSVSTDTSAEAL
T1 sequence (P34972 whole entry): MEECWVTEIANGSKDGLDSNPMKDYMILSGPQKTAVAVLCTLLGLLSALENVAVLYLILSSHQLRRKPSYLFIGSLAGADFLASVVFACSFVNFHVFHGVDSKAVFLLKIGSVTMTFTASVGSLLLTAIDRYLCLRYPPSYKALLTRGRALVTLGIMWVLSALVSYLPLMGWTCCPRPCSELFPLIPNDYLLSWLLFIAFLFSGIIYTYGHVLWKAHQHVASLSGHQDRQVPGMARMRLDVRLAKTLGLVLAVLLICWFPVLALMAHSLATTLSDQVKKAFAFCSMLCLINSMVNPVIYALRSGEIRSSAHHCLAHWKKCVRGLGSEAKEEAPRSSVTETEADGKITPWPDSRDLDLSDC

Row | Compound | Effect of co-administered EC21a on JR64a anti-inflammatory activity (IL-6 release) ([1]; EC21a at equimolar or higher doses, LPS/TNFα) | Effect of equimolar EC21a on LV62 anti-inflammatory activity ([1]; LV62 1 or 10 μM with EC21a 1:1, LPS/TNFα 24 h) | EC50 [2] [nM] | Response in βarrestin2 recruitment ([2]; CHO-K1 hCB2R) | βarrestin2 recruitment E max (% CP55,940) ± S.E.M ([2]; CHO-K1 hCB2R, 90 min) | IC50 [3] [nM] | hCB2R E min (% CP55,940) ± S.E.M [3] | Effect on [3H]CP55,940 bound to hCB2R [3] | hCB1R E min (% CP55,940) ± S.E.M [4] | Response in inhibition of FSK-stimulated cAMP accumulation ([5]; CHO-K1 hCB2R) | Inhibition of cAMP E max (% CP55,940) ± S.E.M [5, 6] | EC50 ([5]; Inhibition of cAMP EC50 (95% C.I.), CHO-K1 hCB2R, 10 µM FSK, 90 min) [nM] | EC50 ([5]; Inhibition of cAMP EC50 (95% C.I.), co-administration, EC21a concentration-response in the presence of 10 nM LV62, 10 µM FSK, 90 min) [nM] | EC50 [2, 7] [nM] | EC50 [5, 8] [nM] | melting point | EC50 [5] [nM]
1 | Cc1c(Br)cn(Cc2ccc(F)cc2)c(=O)c1NC(=O)C1CCCCCC1 [EC21a, reference compound] | no effects on JR64a anti-inflammatory activity | enhanced LV62 anti-inflammatory activity | > 10000 | no response was detected | 1.4 ± 0.96 % CP55,940 | 36 | 115 ± 7.9 % CP55,940 | increased | 103 ± 2.5 % CP55,940 | no response was detected | 2.5 ± 0.53 % CP55,940 | > 10000 | 4.3 | – | – | – | –
2 | Cc1c(Br)cn(CCCc2cn(CCCCC(=O)NC3CCC(NC(=O)c4cc5cccnc5n(Cc5ccc(F)cc5)c4=O)CC3)nn2)c(=O)c1NC(=O)C1CCCCCC1 (stereo not shown) [JR14a, N-(4-(5-(4-(3-(5-bromo-3-(cycloheptanecarboxamido)-4-methyl-2-oxopyridin-1(2H)-yl)propyl)-1H-1,2,3-triazol-1-yl)pentanamido)cyclohexyl)-1-(4-fluorobenzyl)-2-oxo-1,2-dihydro-1,8-naphthyridine-3-carboxamide] | – | – | – | – | 39 ± 0.93 % CP55,940 | 1.8 | 59 ± 12.3 % CP55,940 | – | 98 ± 2.5 % CP55,940 | modest partial agonist activity | 41 ± 5.7 % CP55,940 | – | – | 25 | 150 | 108 °C (dec.) | –
3 | Cc1c(Br)cn(Cc2cn(CCCCC(=O)NC3CCC(NC(=O)c4cc5cccnc5n(Cc5ccc(F)cc5)c4=O)CC3)nn2)c(=O)c1NC(=O)C1CCCCCC1 (stereo not shown) [JR16a, N-(4-(5-(4-((5-bromo-3-(cycloheptanecarboxamido)-4-methyl-2-oxopyridin-1(2H)-yl)methyl)-1H-1,2,3-triazol-1-yl)pentanamido)cyclohexyl)-1-(4-fluorobenzyl)-2-oxo-1,2-dihydro-1,8-naphthyridine-3-carboxamide] | – | – | – | – | 27 ± 4.2 % CP55,940 | – | – | – | – | – | 36 ± 8.6 % CP55,940 | – | – | – | 350 | 113 °C (dec.) | –
4 | Cc1c(Br)cn(CCCc2cn(CCCCCn3c(=O)c(C(=O)NC4CCC(C)CC4)cc4cccnc43)nn2)c(=O)c1NC(=O)C1CCCCCC1 (stereo not shown) [JR22a, 1-(5-(4-(3-(5-bromo-3-(cycloheptanecarboxamido)-4-methyl-2-oxopyridin-1(2H)-yl)propyl)-1H-1,2,3-triazol-1-yl)pentyl)-N-(4-methylcyclohexyl)-2-oxo-1,2-dihydro-1,8-naphthyridine-3-carboxamide] | – | – | > 10000 | – | 33 ± 3.1 % CP55,940 | – | – | – | – | – | 38 ± 5.5 % CP55,940 | – | – | – | – | 114 °C (dec.) | 62
5 | Cc1c(Br)cn(Cc2cn(CCCCCn3c(=O)c(C(=O)NC4CCC(C)CC4)cc4cccnc43)nn2)c(=O)c1NC(=O)C1CCCCCC1 (stereo not shown) [JR26a, 1-(5-(4-((5-bromo-3-(cycloheptanecarboxamido)-4-methyl-2-oxopyridin-1(2H)-yl)methyl)-1H-1,2,3-triazol-1-yl)pentyl)-N-(4-methylcyclohexyl) -2-oxo-1,2-dihydro-1,8-naphthyridine-3-carboxamide] | – | – | – | – | 39 ± 6.1 % CP55,940 | – | – | – | – | – | 41 ± 5.1 % CP55,940 | – | – | > 10000 | 110 | 116 °C (dec.) | –
6 | Cc1c(Br)cn(CCOCCn2c(=O)c(C(=O)NC3CCC(C)CC3)cc3cccnc32)c(=O)c1NC(=O)C1CCCCCC1 (stereo not shown) [JR58a, 1-(2-(2-(5-bromo-3-(cycloheptanecarboxamido)-4-methyl-2-oxopyridin-1(2H)-yl)ethoxy)ethyl)-N-(4-methylcyclohexyl)-2-oxo-1,2-dihydro-1,8-naphthyridine-3-carboxamide] | – | – | > 10000 | – | 51 ± 2.8 % CP55,940 | – | – | – | – | – | 45 ± 2.9 % CP55,940 | – | – | – | – | 110 °C (dec.) | 270
7 | Cc1c(Br)cn(CCCCOCCCCn2c(=O)c(C(=O)NC3CCC(C)CC3)cc3cccnc32)c(=O)c1NC(=O)C1CCCCCC1 (stereo not shown) [JR60a, 1-(4-(4-(5-bromo-3-(cycloheptanecarboxamido)-4-methyl-2-oxopyridin-1(2H)-yl)butoxy)butyl)-N-(4-methylcyclohexyl)-2-oxo-1,2-dihydro-1,8-naphthyridine-3-carboxamide] | – | – | > 10000 | – | 36 ± 9.2 % CP55,940 | – | – | – | – | – | 46 ± 4.4 % CP55,940 | – | – | – | – | 118 °C (dec.) | 770
8 | Cc1c(Br)cn(CCCCCn2c(=O)c(C(=O)NC3CCC(C)CC3)cc3cccnc32)c(=O)c1NC(=O)C1CCCCCC1 (stereo not shown) [JR61a, 1-(5-(5-bromo-3-(cycloheptanecarboxamido)-4-methyl-2-oxopyridin-1(2H)-yl)pentyl)-N-(4-methylcyclohexyl)-2-oxo-1,2-dihydro-1,8-naphthyridine-3-carboxamide] | – | – | > 10000 | – | 34 ± 2.2 % CP55,940 | – | – | – | – | – | 46 ± 1.7 % CP55,940 | – | – | – | – | 118 °C (dec.) | 420
9 | CC1CCC(NC(=O)c2cc3cccnc3n(CCCCCO)c2=O)CC1 (stereo not shown) [LV62, reference compound] | – | – | – | – | 65 ± 1.4 % CP55,940 | 0.65 | 16 ± 11.9 % CP55,940 | fully displaced | 106 ± 3.6 % CP55,940 | – | 110 ± 8.8 % CP55,940 and 110 ± 5.3 % CP55,940 | – | – | – | – | – | 58
